# Data as given in patent US20050112573A1, “Method of detecting toxic substance” (priority 2001, published 2005).
# Tested on: yeast genes (level of expressed mRNA)
# Assay: DNA chip analysis of expressed mRNA of yeast genes after 2 h culture with a toxic chemical substance
# Assay type: cell-based, Saccharomyces cerevisiae S288C
# Protocol: Yeast (Saccharomyces cerevtisiae S288C (α SUC2mal mel gap2 CUP1)) were cultured at 25° C. on YPD medium (yeast extract 1%, polypepton 2%, glucose 2%). One of toxic chemical substances was added to the cell at logarithmic growth phase, and the cell was further cultured for two hours. Cell was cultured without any chemical substance in the same condition, and was used as control. Concentrations of the chemical substances were defined to inhibit the growth of the yeast but not lead to death.
# After the completion of cultivation, the culture was centrifuged to collect the cells. To the cells, sodium acetate buffer (50 mM sodium acetate, 10 mM EDTA, 1% SDS) was added, and the mixture was shaken at 65° C. for five minutes, followed by returning to room temperature, and obtaining the supernatant, which procedure was repeated two times. To the supernatant, ½ amount of a solution of phenol/chloroform was added, and the mixture was centrifuged to give a supernatant, which was added with an equal amount of chloroform, and the mixture was centrifuged to give a supernatant. To the supernatant, an equal amount of isopropanol containing 0.3 M sodium acetate was added, and the mixture was allowed to stand at room temperature for 30 minutes, after which the mixture was centrifuged to give a sediment of the whole RNAs. Seventy % ethanol was added to the sediment, and the mixture was again centrifuged to give a sediment, which was then dried and dissolved in water. mRNA was isolated from the whole RNAs as followings. In view of the fact that a poly A chain is attached to the 3′ terminus of mRNA, a polynucleotide having a poly T structure which was immobilized on the surface of latex beads was used to trap the mRNA, and then the mRNA was washed and eluted with spine column (Oligotex-dT30<Super>mRNA Purification Kit, Takara). Reverse transcription of the mRNA was conducted with a reverse transcriptase (Super Script II Reverse Transcriptase; catalogue No. 18064-014, GibcoBRL) using fluorescence-labeled nucleotides to give cDNAs that were introduced with Cy3-dUTP or Cy5-dUTP during the reverse transcription.
# The labeled cDNAs were dissolved in TE buffer (10 mM Tris-HCl/1 mM EDTA, pH8.0), and the solution was dropped on the DNA chip containing the whole genes of yeast (DNA Chip Research Inc. Japan) so that the cDNAs were hybridized on the DNA chip at 65° C. for over 12 hours. The fluoresces intensity of the DNA chip was read with a scanner, and the ratio relative to the fluorescence intensity resulting from the absence of chemical substance was estimated as the following, which is shown in Tables 1 to 9: [formula]
# In the Tables, “Intensity” indicated in the rightmost column is a value of the level of expressed mRNA of each gene in control cells as divided by the average level of the expressions of the whole genes.
substance,measurement,setting,value
γ-hexachlorocyclohexane [(7)],The level of expressed mRNA in the presence of chemical substance/,"yeast gene YAL053W, ratio to control without chemical",0.7
same,The level of expressed mRNA in the presence of chemical substance/The level of expressed mRNA in the absence of chemical substance,yeast gene YAR010C,1.9
same,The level of expressed mRNA in the presence of chemical substance/The level of expressed mRNA in the absence of chemical substance,yeast gene YBL005W-A,1.4
same,The level of expressed mRNA in the presence of chemical substance/The level of expressed mRNA in the absence of chemical substance,yeast gene YBL041W,1.6
same,The level of expressed mRNA in the presence of chemical substance/The level of expressed mRNA in the absence of chemical substance,yeast gene YBL043W,1.5
same,The level of expressed mRNA in the presence of chemical substance/,"yeast gene YBL048W, ratio to control without chemical substance, 2 h culture",1.9
same,The level of expressed mRNA in the presence of chemical substance/The level of expressed mRNA in the absence of chemical substance,yeast gene YBL078C,3.1
same,The level of expressed mRNA in the presence of chemical substance/,"yeast gene YBL107C, ratio to control without chemical substance, 2 h culture",2.1
same,The level of expressed mRNA in the presence of chemical substance/in the absence of chemical substance,yeast gene YBR036C,1.3
same,The level of expressed mRNA in the presence of chemical substance/The level of expressed mRNA in the absence of chemical substance,yeast gene YBR214W,1.1
same,The level of expressed mRNA in the presence of chemical substance/in the absence of chemical substance,yeast gene YBR298C,1.7
same,The level of expressed mRNA in the presence of chemical substance/The level of expressed mRNA in the absence of chemical substance,yeast gene YCL020W,1.5
same,The level of expressed mRNA in the presence of chemical substance/The level of expressed mRNA in the absence of chemical substance,yeast gene YCL027W,1.0
same,The level of expressed mRNA in the presence of chemical substance/The level of expressed mRNA in the absence of chemical substance,yeast gene YCR004C,1.4
same,The level of expressed mRNA in the presence of chemical substance/The level of expressed mRNA in the absence of chemical substance,yeast gene YCR071C,1.4
same,The level of expressed mRNA in the presence of chemical substance/The level of expressed mRNA in the absence of chemical substance,yeast gene YCR088W,1.2
same,The level of expressed mRNA in the presence of chemical substance/The level of expressed mRNA in the absence of chemical substance,yeast gene YDL008W,2.0
same,The level of expressed mRNA in the presence of chemical substance/,"yeast gene YDL072C, ratio to control without chemical",1.8
same,The level of expressed mRNA in the presence of chemical substance/in the absence of chemical substance,yeast gene YDL078C,1.7
same,The level of expressed mRNA in the presence of chemical substance/,"yeast gene YDL204W, ratio to control without chemical",3.2
same,The level of expressed mRNA in the presence of chemical substance/in the absence of chemical substance,yeast gene YDL215C,1.9
same,The level of expressed mRNA in the presence of chemical substance/,"yeast gene YDL222C, ratio to control without chemical",1.0
same,The level of expressed mRNA in the presence of chemical substance/The level of expressed mRNA in the absence of chemical substance,yeast gene YDL238C,1.4
same,The level of expressed mRNA in the presence of chemical substance/The level of expressed mRNA in the absence of chemical substance,yeast gene YDR055W,1.5
same,The level of expressed mRNA in the presence of chemical substance/The level of expressed mRNA in the absence of chemical substance,yeast gene YDR084C,0.9
same,The level of expressed mRNA in the presence of chemical substance/The level of expressed mRNA in the absence of chemical substance,yeast gene YDR085C,4.1
same,The level of expressed mRNA in the presence of chemical substance/The level of expressed mRNA in the absence of chemical substance,yeast gene YDR104C,1.0
same,The level of expressed mRNA in the presence of chemical substance/The level of expressed mRNA in the absence of chemical substance,yeast gene YDR115W,1.6
same,The level of expressed mRNA in the presence of chemical substance/The level of expressed mRNA in the absence of chemical substance,yeast gene YDR259C,2.8
same,The level of expressed mRNA in the presence of chemical substance/in the absence of chemical substance,yeast gene YDR297W,0.6
same,The level of expressed mRNA in the presence of chemical substance/The level of expressed mRNA in the absence of chemical substance,yeast gene YDR315C,1.4
same,The level of expressed mRNA in the presence of chemical substance/,"yeast gene YDR330W, ratio to control without chemical substance, 2 h culture",1.3
same,The level of expressed mRNA in the presence of chemical substance/The level of expressed mRNA in the absence of chemical substance,yeast gene YDR358W,2.8
same,The level of expressed mRNA in the presence of chemical substance/in the absence of chemical substance,yeast gene YDR387C,1.3
same,The level of expressed mRNA in the presence of chemical substance/The level of expressed mRNA in the absence of chemical substance,yeast gene YDR388W,1.1
same,The level of expressed mRNA in the presence of chemical substance/,"yeast gene YDR411C, ratio to control without chemical substance, 2 h culture",2.0
same,The level of expressed mRNA in the presence of chemical substance/The level of expressed mRNA in the absence of chemical substance,yeast gene YDR432W,0.5
same,The level of expressed mRNA in the presence of chemical substance/The level of expressed mRNA in the absence of chemical substance,yeast gene YDR481C,0.7
same,The level of expressed mRNA in the presence of chemical substance/The level of expressed mRNA in the absence of chemical substance,yeast gene YDR510W,1.6
same,The level of expressed mRNA in the presence of chemical substance/,"yeast gene YDR511W, ratio to control without chemical substance, 2 h culture",1.5
same,The level of expressed mRNA in the presence of chemical substance/,"yeast gene YDR545W, ratio to control without chemical substance, 2 h culture",1.2
same,The level of expressed mRNA in the presence of chemical substance/,"yeast gene YEL001C, ratio to control without chemical",1.1
same,The level of expressed mRNA in the presence of chemical substance/The level of expressed mRNA in the absence of chemical substance,yeast gene YEL042W,0.5
same,The level of expressed mRNA in the presence of chemical substance/The level of expressed mRNA in the absence of chemical substance,yeast gene YEL066W,1.8
same,The level of expressed mRNA in the presence of chemical substance/,"yeast gene YER004W, ratio to control without chemical substance, 2 h culture",1.4
same,The level of expressed mRNA in the presence of chemical substance/,"yeast gene YER035W, ratio to control without chemical substance, 2 h culture",1.9
same,The level of expressed mRNA in the presence of chemical substance/The level of expressed mRNA in the absence of chemical substance,yeast gene YER039C,1.3
same,The level of expressed mRNA in the presence of chemical substance/,"yeast gene YER079W, ratio to control without chemical substance, 2 h culture",1.9
same,The level of expressed mRNA in the presence of chemical substance/,"yeast gene YER106W, ratio to control without chemical",1.0
same,The level of expressed mRNA in the presence of chemical substance/The level of expressed mRNA in the absence of chemical substance,yeast gene YER107C,1.0
same,The level of expressed mRNA in the presence of chemical substance/The level of expressed mRNA in the absence of chemical substance,yeast gene YER130C,1.5
same,The level of expressed mRNA in the presence of chemical substance/,"yeast gene YER158C, ratio to control without chemical substance, 2 h culture",1.2
same,The level of expressed mRNA in the presence of chemical substance/,"yeast gene YER163C, ratio to control without chemical substance, 2 h culture",1.5
same,The level of expressed mRNA in the presence of chemical substance/,"yeast gene YER175C, ratio to control without chemical substance, 2 h culture",2.3
same,The level of expressed mRNA in the presence of chemical substance/,"yeast gene YFL006W, ratio to control without chemical substance, 2 h culture",1.0
